This note sets out measurements from US10646494B2, “Heterocycle-substituted tetracyclic compounds and methods of use thereof for the treatment of viral diseases” (Merck Sharp & Dohme Corp., priority 2016, dated 2020).

Each structure is given as a SMILES string. Read-outs that look alike come from different tables or passages of the source.

Common to all, as to design: species or system Hepatitis C virus (HCV)
One test deals with HCV replicon 1A Y93H. Kind of test: Cell-based HCV replicon assay (Replicon Assay A), replicon 1AY93H. Conditions: read-out: Replicon EC50 (nM) 1A Y93H, replicon 1A Y93H, replicon RNA by real time PCR, cells harvested on day 3. Here is the method:
(§1) To measure cell-based anti-HCV activity of compounds of the present invention, two complimentary assays were employed using various replicons. In the first assay (“Replicon Assay A”), replicon cells were seeded at 2000 cells/well in 384-well 384-well flat bottom tissue culture treated clear bottom plate (Corning 3707) in the presence of the test compound. Various concentrations of test compound, typically in 10 serial dilutions, were added to the assay mixture, with the starting concentration ranging from 333.3 nM to […]. The final concentration of DMSO was 0.5%. Fetal bovine serum was 5%, in the assay media. Cells were harvested on day 3 by removing media and washing the cells with a suitable wash buffer. The cells are lysed with the addition of 1× Qiagen lysis buffer (Cat #1062731). The replicon RNA level was measured using real time PCR (TaqMan® EZ RT-PCR, Applied Biosystems 403028) with the following primers and probes: […]
(§2) Cyclophilin RNA was used as endogenous control and was amplified in the same reaction as NS5B (multiplex PCR). The real-time RT-PCR reactions were run on ABI PRISM 7900HT Sequence Detection System using the following program: 50° C. for 2 minutes, 60° C. for 30 minutes, 95° C. for 5 minutes, 40 cycles of 94° C. for 20 sec, 55° C. for 1 minutes.
(§3) The amount of HCV replicon RNA per cell is quantified using a linear regression curve for a known nanogram (ng) amount of HCV replicon total RNA. This is established by plotting the Cycle Threshold values (Ct) from the Neo probe and primer set versus the log (ng) for each HCV replicon total RNA standard. The amount of HCV RNA for each replicon sample is calculated by taking the sample's Ct value, minus the line intercept, divided by the slope of the line. Similarly, the amount of Cyclophilin mRNA per cell is also quantified using a linear regression curve for a known nanogram (ng) amount of HCV replicon total RNA. Again, this is established by plotting the Cycle Threshold values (Ct) from the Cyclophilin probe and primer set versus the log (ng) for each HCV replicon total RNA standard.
(§4) Data was obtained for various compounds of the present invention using the methods described in the Example above, and is presented in the table immediately below. Data for replicons 1A, 1AY93H and 2B were obtained using Replicon Assay A and data for replicons 1B were obtained using Replicon Assay B.
(In general: Replicon systems follow genome replication, usually without infectious particles.)

In another test the test system is HCV replicon 2B. Kind of test: Cell-based HCV replicon assay (Replicon Assay A), replicon 2B. Conditions: read-out: Replicon EC50 (nM) 2B, replicon 2B, replicon RNA by real time PCR, cells harvested on day 3. Here is the method:
as §1, §2, §3, §4

The test system of the next test is HCV replicon 1A. Briefly: Cell-based HCV replicon assay (Replicon Assay A), replicon 1A. As to conditions: replicon RNA by real time PCR, cells harvested on day 3. Here is the method:
as §1, §2, §3, §4

As usually defined, the EC50 is the concentration at which the effect is half-maximal. As for `CCc1cc(C2Oc3cc(-c4cnc([C@@H]5CCCN5C(=O)[C@@H](NC(=O)OC)C(C)C)[nH]4)cc(F)c3-c3cc4cc(-c5cnc([C@@H]6CCCN6C(=O)[C@@H](NC(=O)OC)C(C)C)[nH]5)ccc4n32)on1` (mixture of isomers) [Compound 5], the EC50 with HCV replicon 1A Y93H (Hepatitis C virus, 72 h) came out at 0.708 nM; in the test with HCV replicon 2B (Hepatitis C virus, 72 h), 4.17 nM.
`COC(=O)N[C@H](C(=O)N1CCC[C@H]1c1ncc(-c2cc(F)c3c(c2)OC(c2nc4ccccc4n2C)n2c-3cc3cc(-c4cnc([C@@H]5CCCN5C(=O)[C@@H](NC(=O)OC)C(C)C)[nH]4)ccc32)[nH]1)C(C)C` (mixture of isomers) [Compound 11]: the EC50 in the test with HCV replicon 1A Y93H (Hepatitis C virus, 72 h) amounted to 21.6 nM; with HCV replicon 1A (Hepatitis C virus, 72 h), 0.0081 nM; in the test on HCV replicon 2B (Hepatitis C virus, 72 h), 8.23 nM.
On to `COC(=O)N[C@H](C(=O)N1CCC[C@H]1c1ncc(-c2cc(F)c3c(c2)OC(c2cc4ccccn4n2)n2c-3cc3cc(-c4cnc([C@@H]5CCCN5C(=O)[C@@H](NC(=O)OC)C(C)C)[nH]4)ccc32)[nH]1)C(C)C` (mixture of isomers) [Compound 12], for which the EC50 was found to be 0.0202 nM in the test on HCV replicon 1A (Hepatitis C virus, 72 h) and 33.3 nM with HCV replicon 2B (Hepatitis C virus, 72 h).
With `COC(=O)N[C@H](C(=O)N1CCC[C@H]1c1ncc(-c2ccc3c(c2)OC(c2nnc(-c4ccccc4)o2)n2c-3cc3cc(-c4cnc([C@@H]5CCCN5C(=O)[C@@H](NC(=O)OC)C5CCOCC5)[nH]4)ccc32)[nH]1)C1CCOCC1` (mixture of isomers) [Compound 38], the EC50 with HCV replicon 1A Y93H (Hepatitis C virus, 72 h) amounted to 0.737 nM; in the test on HCV replicon 1A (Hepatitis C virus, 72 h), 0.223 nM.
With `CCc1cc([C@@H]2Oc3cc(-c4cnc([C@@H]5CCCN5C(=O)[C@@H](NC(=O)OC)C(C)C)[nH]4)cc(F)c3-c3cc4cc(-c5cnc([C@@H]6CCCN6C(=O)[C@@H](NC(=O)OC)C(C)C)[nH]5)ccc4n32)on1` (single isomer, unassigned) [Compound 7], the EC50 with HCV replicon 1A Y93H is 49.7 nM; with HCV replicon 1A, 0.0073 nM; in the test with HCV replicon 2B it was 10.5 nM.
Turning to `CCc1cc([C@@H]2Oc3cc(-c4cnc([C@@H]5CCCN5C(=O)[C@@H](NC(=O)OC)C(C)C)[nH]4)cc(F)c3-c3cc4cc(-c5cnc([C@@H]6CCCN6C(=O)[C@@H](NC(=O)OC)C(C)C)[nH]5)ccc4n32)on1` (single isomer, unassigned) [Compound 8], the EC50 in the test with HCV replicon 1A Y93H came to 0.603 nM; with HCV replicon 1A (Hepatitis C virus, 72 h) it was 0.004 nM; with HCV replicon 2B, 1.23 nM.
For the compound `COC(=O)N[C@H](C(=O)N1CCC[C@H]1c1ncc(-c2cc(F)c3c(c2)O[C@@H](c2cc(C(C)C)no2)n2c-3cc3cc(-c4cnc([C@@H]5CCCN5C(=O)[C@@H](NC(=O)OC)C(C)C)[nH]4)ccc32)[nH]1)C(C)C` (single isomer, unassigned) [Compound 9], the EC50 was 0.05 nM with HCV replicon 1A Y93H; 0.0036 nM in the test with HCV replicon 1A (Hepatitis C virus, 72 h); 0.27 nM with HCV replicon 2B.
For the compound `COC(=O)N[C@H](C(=O)N1CCC[C@H]1c1ncc(-c2cc(F)c3c(c2)O[C@@H](c2cc(C(C)C)no2)n2c-3cc3cc(-c4cnc([C@@H]5CCCN5C(=O)[C@@H](NC(=O)OC)C(C)C)[nH]4)ccc32)[nH]1)C(C)C` (single isomer, unassigned) [Compound 10], the EC50 turned out to be 1.43 nM with HCV replicon 1A Y93H, 0.0027 nM in the test with HCV replicon 1A and 1.05 nM in the test with HCV replicon 2B.
As for `COC(=O)N[C@H](C(=O)N1CCC[C@@H]1c1ncc(-c2ccc3c(c2)cc2n3C(c3nnc(C)s3)Oc3cc(-c4cnc([C@H]5CCCN5C(=O)[C@H](NC(=O)OC)C(C)C)[nH]4)cc(F)c3-2)[nH]1)C(C)C` (single isomer, unassigned) [Compound 15], in the test on HCV replicon 2B (Hepatitis C virus, 72 h), the EC50 worked out at 3.06 nM.
For the compound `COC(=O)N[C@H](C(=O)N1CCC[C@@H]1c1ncc(-c2ccc3c(c2)cc2n3C(c3nnc(C)s3)Oc3cc(-c4cnc([C@H]5CCCN5C(=O)[C@H](NC(=O)OC)C(C)C)[nH]4)cc(F)c3-2)[nH]1)C(C)C` (single isomer, unassigned) [Compound 16], in the test on HCV replicon 2B, the EC50 is 1.75 nM.
Consider `COC(=O)N[C@H](C(=O)N1CCC[C@@H]1c1ncc(-c2ccc3c(c2)cc2n3C(c3cnco3)Oc3cc(-c4cnc([C@H]5CCCN5C(=O)[C@H](NC(=O)OC)C(C)C)[nH]4)cc(F)c3-2)[nH]1)C(C)C` (single isomer, unassigned) [Compound 17], for which the EC50 worked out at 0.716 nM with HCV replicon 1A Y93H; 0.0327 nM in the test with HCV replicon 1A; 3.96 nM in the test on HCV replicon 2B (Hepatitis C virus, 72 h).
With `COC(=O)N[C@H](C(=O)N1CCC[C@@H]1c1ncc(-c2ccc3c(c2)cc2n3C(c3cnco3)Oc3cc(-c4cnc([C@H]5CCCN5C(=O)[C@H](NC(=O)OC)C(C)C)[nH]4)cc(F)c3-2)[nH]1)C(C)C` (single isomer, unassigned) [Compound 18], the values for the EC50 with HCV replicon 1A Y93H, with HCV replicon 1A and in the test on HCV replicon 2B were 18.4 nM, 0.0023 nM and 3.54 nM, respectively.
With `COC(=O)N[C@H](C(=O)N1CCC[C@H]1c1ncc(-c2cc(F)c3c(c2)OC(c2nc4ccccc4o2)n2c-3cc3cc(-c4cnc([C@@H]5CCCN5C(=O)[C@@H](NC(=O)OC)C(C)C)[nH]4)ccc32)[nH]1)C(C)C` (single isomer, unassigned) [Compound 19], the EC50 in the test with HCV replicon 1A Y93H came to 4.36 nM; in the test with HCV replicon 1A (Hepatitis C virus, 72 h), 0.0016 nM; with HCV replicon 2B, 2.67 nM.
As to `COC(=O)N[C@H](C(=O)N1CCC[C@H]1c1ncc(-c2cc(F)c3c(c2)OC(c2cnns2)n2c-3cc3cc(-c4cnc([C@@H]5CCCN5C(=O)[C@@H](NC(=O)OC)C(C)C)[nH]4)ccc32)[nH]1)C(C)C` (single isomer, unassigned) [Compound 21], the EC50 in the test with HCV replicon 1A Y93H was determined as 1.39 nM; in the test with HCV replicon 2B, 0.98 nM.
As to `COC(=O)N[C@H](C(=O)N1CCC[C@H]1c1ncc(-c2cc(F)c3c(c2)OC(c2nc(C)co2)n2c-3cc3cc(-c4cnc([C@@H]5CCCN5C(=O)[C@@H](NC(=O)OC)C(C)C)[nH]4)ccc32)[nH]1)C(C)C` (single isomer, unassigned) [Compound 23], the EC50 with HCV replicon 1A Y93H was 12.7 nM; with HCV replicon 1A (Hepatitis C virus, 72 h), 0.0031 nM; in the test on HCV replicon 2B, 6.16 nM.
Turning to `COC(=O)N[C@H](C(=O)N1CCC[C@H]1c1ncc(-c2cc(F)c3c(c2)OC(c2cc(C(C)C)no2)n2c-3cc3cc(-c4cnc([C@@H]5CCCN5C(=O)[C@@H](NC(=O)OC)C(C)C)[nH]4)ccc32)[nH]1)C(C)C` (single isomer, unassigned) [Compound 26], the EC50 with HCV replicon 1A Y93H was determined as 0.816 nM; in the test with HCV replicon 2B, 0.8 nM.
For `CCc1cnc(C2Oc3cc(-c4cnc([C@@H]5CCCN5C(=O)[C@@H](NC(=O)OC)C(C)C)[nH]4)cc(F)c3-c3cc4cc(-c5cnc([C@@H]6CCCN6C(=O)[C@@H](NC(=O)OC)C(C)C)[nH]5)ccc4n32)o1` (single isomer, unassigned) [Compound 27], the EC50 in the test on HCV replicon 1A (Hepatitis C virus, 72 h) stood at 0.0027 nM; in the test on HCV replicon 2B it was 5.5 nM.
Consider `COC(=O)N[C@H](C(=O)N1CCC[C@H]1c1ncc(-c2cc(F)c3c(c2)OC(c2cc(C4CC4)no2)n2c-3cc3cc(-c4cnc([C@@H]5CCCN5C(=O)[C@@H](NC(=O)OC)C(C)C)[nH]4)ccc32)[nH]1)C(C)C` (single isomer, unassigned) [Compound 29], for which the values for the EC50 in the test with HCV replicon 1A Y93H and in the test on HCV replicon 2B were 3.25 nM and 0.46 nM, respectively.
Regarding `CCc1nnc(C2Oc3cc(-c4cnc([C@@H]5CCCN5C(=O)[C@@H](NC(=O)OC)C(C)C)[nH]4)cc(F)c3-c3cc4cc(-c5cnc([C@@H]6CCCN6C(=O)C(NC(=O)OC)C(C)C)[nH]5)ccc4n32)s1` (single isomer, unassigned) [Compound 34], the EC50 in the test with HCV replicon 1A Y93H (Hepatitis C virus, 72 h) came to 0.793 nM; in the test with HCV replicon 1A, 0.0084 nM.
`COC(=O)N[C@H](C(=O)N1CCC[C@H]1c1ncc(-c2cc(F)c3c(c2)OC(c2cnc4n2CCC4)n2c-3cc3cc(-c4cnc([C@@H]5CCCN5C(=O)[C@@H](NC(=O)OC)C(C)C)[nH]4)ccc32)[nH]1)C(C)C` (some centres unmarked) [Compound 13] registered an EC50 in the test on HCV replicon 1A (Hepatitis C virus, 72 h) of 0.147 nM.
Consider `COC(=O)N[C@H](C(=O)N1CCC[C@H]1c1ncc(-c2ccc3c(c2)OC(c2ccc(C)o2)n2c-3cc3cc(-c4cnc([C@@H]5C[C@@H](F)CN5C(=O)[C@@H](NC(=O)OC)C5CCOCC5)[nH]4)ccc32)[nH]1)C(C)C` (some centres unmarked) [Compound 44], for which the EC50 in the test with HCV replicon 1A Y93H (Hepatitis C virus, 72 h) was 0.434 nM; with HCV replicon 1A (Hepatitis C virus, 72 h), 0.0679 nM.
On the same counts, the results for `COC(=O)N[C@H](C(=O)N1CCC[C@H]1c1ncc(-c2ccc3c(c2)OC(c2ccc(C)o2)n2c-3cc3cc(-c4cnc([C@@H]5C[C@H]6C[C@H]6N5C(=O)[C@@H](NC(=O)OC)C(C)C)[nH]4)ccc32)[nH]1)C(C)C` (some centres unmarked) [Compound 45] are 4.22 nM and 0.0484 nM.
